Test system: P12-Ichikawa
Assay: cell viability relative to DMSO control; higher = less cytotoxic
Conditions: 48 h
Method in brief: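 In 1536-well plates, 5 μl of leukemia cells were seeded per well: 500 cells/well for NOMO1 or SEM and 1000 cells/well for P12-Ichikawa. Each line had first been adapted for at least four passages in each medium. Library compounds in DMSO were pin-dosed at 11 threefold concentrations between 47 μM and 0.79 nM, and CellTiter-Glo One luminescence was read after 48 h at 37°C. Viability is a per-plate percentage relative to DMSO wells, with cell-free wells as background.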

[1] = HPLM + 10% dialyzed FBS, 0.000781 µM
[2] = HPLM + 10% dialyzed FBS, 0.00234 µM
[3] = HPLM + 10% dialyzed FBS, 0.00702 µM
[4] = HPLM + 10% dialyzed FBS, 0.0211 µM
[5] = HPLM + 10% dialyzed FBS, 0.0632 µM
[6] = HPLM + 10% dialyzed FBS, 0.19 µM
[7] = HPLM + 10% dialyzed FBS, 0.569 µM
[8] = HPLM + 10% dialyzed FBS, 1.71 µM
[9] = HPLM + 10% dialyzed FBS, 5.12 µM
[10] = HPLM + 10% dialyzed FBS, 15.4 µM
[11] = HPLM + 10% dialyzed FBS, 46.1 µM
[12] = RPMI 5 mM glucose + 10% dialyzed FBS, 0.000781 µM
[13] = RPMI 5 mM glucose + 10% dialyzed FBS, 0.00234 µM
[14] = RPMI 5 mM glucose + 10% dialyzed FBS, 0.00702 µM
[15] = RPMI 5 mM glucose + 10% dialyzed FBS, 0.0211 µM
[16] = RPMI 5 mM glucose + 10% dialyzed FBS, 0.0632 µM
[17] = RPMI 5 mM glucose + 10% dialyzed FBS, 0.19 µM
[18] = RPMI 5 mM glucose + 10% dialyzed FBS, 0.569 µM
[19] = RPMI 5 mM glucose + 10% dialyzed FBS, 1.71 µM
[20] = RPMI 5 mM glucose + 10% dialyzed FBS, 5.12 µM
[21] = RPMI 5 mM glucose + 10% dialyzed FBS, 15.4 µM
[22] = RPMI 5 mM glucose + 10% dialyzed FBS, 46.1 µM
[23] = RPMI 5 mM glucose + 10% FBS, 0.000781 µM
[24] = RPMI 5 mM glucose + 10% FBS, 0.00234 µM
[25] = RPMI 5 mM glucose + 10% FBS, 0.00702 µM
[26] = RPMI 5 mM glucose + 10% FBS, 0.0211 µM
[27] = RPMI 5 mM glucose + 10% FBS, 0.0632 µM
[28] = RPMI 5 mM glucose + 10% FBS, 0.19 µM
[29] = RPMI 5 mM glucose + 10% FBS, 0.569 µM
[30] = RPMI 5 mM glucose + 10% FBS, 1.71 µM
[31] = RPMI 5 mM glucose + 10% FBS, 5.12 µM
[32] = RPMI 5 mM glucose + 10% FBS, 15.4 µM
[33] = RPMI 5 mM glucose + 10% FBS, 46.1 µM

Compound	cell viability [1] [%]	cell viability [2] [%]	cell viability [3] [%]	cell viability [4] [%]	cell viability [5] [%]	cell viability [6] [%]	cell viability [7] [%]	cell viability [8] [%]	cell viability [9] [%]	cell viability [10] [%]	cell viability [11] [%]	cell viability [12] [%]	cell viability [13] [%]	cell viability [14] [%]	cell viability [15] [%]	cell viability [16] [%]	cell viability [17] [%]	cell viability [18] [%]	cell viability [19] [%]	cell viability [20] [%]	cell viability [21] [%]	cell viability [22] [%]	cell viability [23] [%]	cell viability [24] [%]	cell viability [25] [%]	cell viability [26] [%]	cell viability [27] [%]	cell viability [28] [%]	cell viability [29] [%]	cell viability [30] [%]	cell viability [31] [%]	cell viability [32] [%]	cell viability [33] [%]
CC(C)(C)C(=O)Oc1ccc2c(c1)nc(NC(=O)c1cccc([N+](=O)[O-])c1)n2CCCO	120	123	118	119	115	119	116	106	109	111	106	118	122	121	117	118	112	115	103	111	97.4	89.4	–	–	–	–	–	–	–	–	–	–	–
C[C@]12CC[C@@H]3c4ccc(OC(=O)N(CCCl)CCCl)cc4CC[C@H]3[C@@H]1CC[C@@H]2OP(=O)([O-])[O-].[Na+].[Na+]	118	115	113	94.4	121	117	105	111	113	110	26.6	107	116	117	82.8	117	105	106	111	96	104	88.1	115	118	117	89	5.78	123	118	117	106	98.7	119
CN\1C(=O)/C(=C(\N=C1N2CCCC[S+]2([O-])=O)C(=O)NCC3=CC=C(F)C=C3)O	124	123	115	113	118	122	119	111	107	109	103	124	116	119	126	127	117	123	120	99.7	109	102	–	–	–	–	–	–	–	–	–	–	–
CC1=NN(c2ccc(C)c(C)c2)C(=O)/C1=N/Nc1cccc(-c2cccc(C(=O)O)c2)c1O	120	120	129	124	116	127	121	118	112	91.1	68.1	–	–	–	–	–	–	–	–	–	–	–	–	–	–	–	–	–	–	–	–	–	–
CC(C)c1cnn2c(NCc3ccccc3)cc(N[C@@H](CO)[C@H](O)CO)nc12	121	128	124	127	129	127	120	35.4	8.12	5.35	4.01	–	–	–	–	–	–	–	–	–	–	–	–	–	–	–	–	–	–	–	–	–	–
C[C@]12C[C@H](O)[C@H]3[C@@H](CC\C4=C\C(=O)\C=C/[C@]34C)[C@@H]1CC[C@]2(O)C(=O)CO	–	–	–	–	–	–	–	–	–	–	–	128	118	119	121	117	107	88.2	69.7	57.9	52	14	–	–	–	–	–	–	–	–	–	–	–
NC[C@H]1CC[C@H](C(=O)O)CC1	–	–	–	–	–	–	–	–	–	–	–	–	–	–	–	–	–	–	–	–	–	–	15	141	125	134	139	123	136	129	132	128	121
CN(c1ncccc1CNc1nc(Nc2ccc3c(c2)CC(=O)N3)ncc1C(F)(F)F)[S+](C)(=O)[O-]	111	117	109	109	112	112	103	109	112	101	57.8	115	118	117	114	117	108	114	114	110	105	48.2	111	113	116	110	121	113	114	114	100	88.9	50.1
C[C@H](O)[C@H]1[C@@H]2[C@H](C)C(=C(\N2C1=O)C(O)=O)/S[C@@H]3CN[C@H](CN[S+](N)([O-])=O)C3	118	125	132	129	124	125	124	121	121	113	104	–	–	–	–	–	–	–	–	–	–	–	123	126	123	128	124	122	123	111	117	103	105
COc1ccc(Cc2ccc(NC(N)=O)cc2)cc1-c1cccc(Cl)c1	112	115	127	121	118	118	123	124	126	122	116	110	120	113	111	117	119	115	131	121	124	113	114	134	122	131	130	127	117	130	149	132	124
ClC1=C(N\C2=N\CCN2)C3=NSN=C3C=C1	106	117	122	130	119	117	119	115	120	127	124	107	115	114	127	124	116	129	115	124	120	127	–	–	–	–	–	–	–	–	–	–	–

Reference: the supplement of paper PMC11451515
